# ChEMBL document CHEMBL1201862, “PubChem BioAssay data set” (2004)
#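 Five concentrations, 48 hours, 96-well plates. Abbreviation: GI50, concentration required for 50% inhibition of growth.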 Calls of active or inactive are those of the source. Cut-off read from the data, not from the text of the source: active = GI50 up to about 1.1 µM and inactive = higher.
# Key:
# Experiment in all cases: NCI tumour cell line growth inhibition, 48 h
# COLO 205 = test system: COLO 205
# NCI-H460 = test system: NCI-H460
# SW-620 = test system: SW-620
# Hs-578T = test system: Hs-578T
# HCC 2998 = test system: HCC 2998
# SF-539 = test system: SF-539
# SK-OV-3 = test system: SK-OV-3
# RXF 393 = test system: RXF 393
# SNB-19 = test system: SNB-19
# OVCAR-8 = test system: OVCAR-8
# 786-0 = test system: 786-0
# T47D = test system: T47D
# MDA-MB-435 = test system: MDA-MB-435
# OVCAR-4 = test system: OVCAR-4
# PC-3 = test system: PC-3
# HT-29 = test system: HT-29
# K562 = test system: K562
# OVCAR-3 = test system: OVCAR-3
# CCRF-CEM = test system: CCRF-CEM
# OVCAR-5 = test system: OVCAR-5
# NCI-H23 = test system: NCI-H23
# Malme-3M = test system: Malme-3M
# CAKI-1 = test system: CAKI-1
# BT-549 = test system: BT-549
# SF-268 = test system: SF-268
# SR = test system: SR
# SK-MEL-2 = test system: SK-MEL-2
# SK-MEL-28 = test system: SK-MEL-28
# EKVX = test system: EKVX
# MDA-N = test system: MDA-N
# SNB-75 = test system: SNB-75
# NCI-H226 = test system: NCI-H226
# KM12 = test system: KM12
# UACC-62 = test system: UACC-62
# HCT-15 = test system: HCT-15
# U-251 = test system: U-251
# M14 = test system: M14
# MDA-MB-231 = test system: MDA-MB-231
# SK-MEL-5 = test system: SK-MEL-5
# UO-31 = test system: UO-31
# HCT-116 = test system: HCT-116
# NCI-H522 = test system: NCI-H522
# UACC-257 = test system: UACC-257
# DU-145 = test system: DU-145
# HL-60 = test system: HL-60
# SN12C = test system: SN12C
# ACHN = test system: ACHN
# HOP-92 = test system: HOP-92
# MOLT-4 = test system: MOLT-4
# LOX IMVI = test system: LOX IMVI
# NCI/ADR-RES = test system: NCI/ADR-RES
# SF-295 = test system: SF-295
# MCF7 = test system: MCF7
# TK-10 = test system: TK-10
# A549 = test system: A549
# IGROV-1 = test system: IGROV-1
# RPMI-8226 = test system: RPMI-8226
# HOP-62 = test system: HOP-62
smiles,measurement,setting,value
O=C1CS(=O)(=O)C(c2cccc(Oc3ccccc3)c2)N1C1CC1 (stereo unspecified),GI50,COLO 205,25.2 µM (inactive)
same,GI50,NCI-H460,43.4 µM (inactive)
same,GI50,SW-620,60.5 µM (inactive)
same,GI50,Hs-578T,> 100 µM (inactive)
same,GI50,HCC 2998,44 µM (inactive)
same,GI50,SF-539,50.9 µM (inactive)
same,GI50,SK-OV-3,33.3 µM (inactive)
same,GI50,RXF 393,22 µM (inactive)
same,GI50,SNB-19,50.1 µM (inactive)
same,GI50,OVCAR-8,38.5 µM (inactive)
same,GI50,786-0,37.2 µM (inactive)
same,GI50,T47D,35 µM (inactive)
same,GI50,MDA-MB-435,26.2 µM (inactive)
same,GI50,OVCAR-4,29.2 µM (inactive)
same,GI50,PC-3,25.8 µM (inactive)
same,GI50,HT-29,32.7 µM (inactive)
same,GI50,K562,50.9 µM (inactive)
same,GI50,OVCAR-3,33 µM (inactive)
same,GI50,CCRF-CEM,60.1 µM (inactive)
same,GI50,OVCAR-5,62.2 µM (inactive)
same,GI50,NCI-H23,28 µM (inactive)
same,GI50,Malme-3M,> 100 µM (inactive)
same,GI50,CAKI-1,0.045 µM (active)
same,GI50,BT-549,41.7 µM (inactive)
same,GI50,SF-268,64.7 µM (inactive)
same,GI50,SR,31.6 µM (inactive)
same,GI50,SK-MEL-2,45.1 µM (inactive)
same,GI50,SK-MEL-28,90.6 µM (inactive)
same,GI50,EKVX,29 µM (inactive)
same,GI50,MDA-N,26.7 µM (inactive)
same,GI50,SNB-75,24.8 µM (inactive)
same,GI50,NCI-H226,26.9 µM (inactive)
same,GI50,KM12,31.4 µM (inactive)
same,GI50,UACC-62,31.6 µM (inactive)
same,GI50,HCT-15,30.3 µM
same,GI50,U-251,32.5 µM (inactive)
same,GI50,M14,41.1 µM (inactive)
same,GI50,MDA-MB-231,75.2 µM (inactive)
same,GI50,SK-MEL-5,18.9 µM (inactive)
same,GI50,UO-31,27.6 µM (inactive)
same,GI50,HCT-116,25.5 µM (inactive)
same,GI50,NCI-H522,38.7 µM (inactive)
same,GI50,UACC-257,33.2 µM (inactive)
same,GI50,DU-145,63.2 µM (inactive)
same,GI50,HL-60,30.8 µM (inactive)
same,GI50,SN12C,46.8 µM (inactive)
same,GI50,ACHN,31.2 µM (inactive)
same,GI50,HOP-92,23.4 µM (inactive)
same,GI50,MOLT-4,30.4 µM (inactive)
same,GI50,LOX IMVI,41.7 µM (inactive)
same,GI50,NCI/ADR-RES,28.1 µM (inactive)
same,GI50,SF-295,36.6 µM (inactive)
same,GI50,MCF7,22.8 µM (inactive)
same,GI50,TK-10,44.7 µM (inactive)
same,GI50,A549,35.6 µM (inactive)
CN1C(=O)C2(c3ccccc31)C1CC3C(CO1)C1C2C3(CO)CN1C#N (stereo unspecified),GI50,COLO 205,> 100 µM (inactive)
same,GI50,NCI-H460,> 100 µM (inactive)
same,GI50,Hs-578T,> 100 µM (inactive)
same,GI50,HCC 2998,> 100 µM (inactive)
same,GI50,SK-OV-3,> 100 µM (inactive)
same,GI50,RXF 393,> 100 µM (inactive)
same,GI50,SNB-19,> 100 µM (inactive)
same,GI50,OVCAR-8,> 100 µM (inactive)
same,GI50,786-0,> 100 µM (inactive)
same,GI50,T47D,> 100 µM (inactive)
same,GI50,MDA-MB-435,> 100 µM (inactive)
same,GI50,OVCAR-4,> 100 µM (inactive)
same,GI50,PC-3,> 100 µM (inactive)
same,GI50,HT-29,> 100 µM (inactive)
same,GI50,K562,> 100 µM (inactive)
same,GI50,OVCAR-3,> 100 µM (inactive)
same,GI50,CCRF-CEM,> 100 µM (inactive)
same,GI50,OVCAR-5,> 100 µM (inactive)
same,GI50,NCI-H23,> 100 µM (inactive)
same,GI50,Malme-3M,> 100 µM (inactive)
same,GI50,CAKI-1,> 100 µM (inactive)
same,GI50,BT-549,> 100 µM (inactive)
same,GI50,IGROV-1,> 100 µM (inactive)
same,GI50,SF-268,> 100 µM (inactive)
same,GI50,SR,> 100 µM (inactive)
same,GI50,SK-MEL-2,> 100 µM (inactive)
same,GI50,SK-MEL-28,> 100 µM (inactive)
same,GI50,EKVX,> 100 µM (inactive)
same,GI50,MDA-N,> 100 µM (inactive)
same,GI50,SNB-75,> 100 µM (inactive)
same,GI50,NCI-H226,> 100 µM (inactive)
same,GI50,KM12,> 100 µM (inactive)
same,GI50,UACC-62,> 100 µM (inactive)
same,GI50,HCT-15,> 100 µM
same,GI50,U-251,> 100 µM (inactive)
same,GI50,M14,> 100 µM (inactive)
same,GI50,MDA-MB-231,> 100 µM (inactive)
same,GI50,SK-MEL-5,> 100 µM (inactive)
same,GI50,UO-31,> 100 µM (inactive)
same,GI50,HCT-116,> 100 µM (inactive)
same,GI50,NCI-H522,> 100 µM (inactive)
same,GI50,UACC-257,> 100 µM (inactive)
same,GI50,DU-145,> 100 µM (inactive)
same,GI50,HL-60,> 100 µM (inactive)
same,GI50,SN12C,> 100 µM (inactive)
same,GI50,ACHN,> 100 µM (inactive)
same,GI50,HOP-92,> 100 µM (inactive)
same,GI50,RPMI-8226,> 100 µM (inactive)
same,GI50,MOLT-4,> 100 µM (inactive)
same,GI50,LOX IMVI,> 100 µM (inactive)
same,GI50,NCI/ADR-RES,> 100 µM (inactive)
same,GI50,SF-295,> 100 µM (inactive)
same,GI50,MCF7,> 100 µM (inactive)
same,GI50,TK-10,> 100 µM (inactive)
same,GI50,A549,> 100 µM (inactive)
same,GI50,HOP-62,> 100 µM (inactive)
